From patent US20250009819A1, “NOVEL PROBIOTICS AND USE THEREOF” (PBLBIOLAB CO., LTD., priority 2021, published 2025)

Assays:
[1] = Antioxidant activity (DPPH, in vitro); format: biochemical; conditions: DPPH 0.2 mM; lactic acid bacteria suspension 1×10^8 CFU/ml; 37° C. 20 min
Description: DPPH (2,2-Diphenyl-1-picrylhydrazyl) was dissolved in ethanol to a concentration of 0.2 mM to prepare DPPH solution. Lactic acid bacteria suspension (1×10^8 CFU/ml) or vitamin C solution (1 g/ml) was added to 0.1 ml of the above DPPH solution and incubated at 37° C. for 20 min. The culture was centrifuged at 3000 rpm for 5 min to obtain a supernatant. The absorbance of the supernatant was then measured at 517 nm and the antioxidant activity of the lactic acid bacteria was calculated.

TNF-α = TNF-α expression in LPS-treated macrophages (ELISA); format: cell-based, C57BL/6 mice; conditions: macrophages treated with lactic acid bacteria and LPS for 24 hours
Description: (§1) C57BL/6 mice (male, 6 weeks old, 20-23 g) were subjected to an intraperitoneal injection of 2 ml of sterile 4% thioglycolate solution, and after 96 hours, the mice were anesthetized and injected with 8 ml of RPMI 1640 medium through the peritoneal cavity. Then, after 5-10 minutes, the RPMI medium (macrophages) in the mouse peritoneal cavity was extracted, centrifuged at 1000 g for 10 minutes, and washed again with RPMI 1640 medium twice. Macrophages were seeded in 24-well plates at a count of 0.5×10^6 in each well, and treated with lactic acid bacteria and LPS, an inflammatory response-inducing substance, for 24 hours. TNF-α and IL-10 cytokine expression amount in the culture supernatant was then measured by ELISA Kit.

IL-10 = IL-10 expression in LPS-treated macrophages (ELISA); format: cell-based, C57BL/6 mice; conditions: macrophages treated with lactic acid bacteria and LPS for 24 hours
Description: as §1

BDNF = BDNF expression in SH-SY5Y cells; format: cell-based; conditions: LPS 200 ng/ml; lactic acid bacteria 1×10^4 CFU/ml; 24 h
Description: (§2) SH-SY5Y cells obtained from the Korean Cell Line Bank were cultured in DMEM medium supplemented with 10% FBS and 1% antibiotics, and dispensed at 2×10^6 cells per well in a 12-well plate. Then, LPS (200 ng/ml) was added to each well along with lactic acid bacteria (1×10^4 CFU/ml) and incubated for 24 h. The cells and supernatants were collected, sonicated and centrifuged, and the amount of BDNF in the supernatant was measured by ELISA kit.

Neuropeptide Y (NPY) = Neuropeptide Y (NPY) expression in PC12 phaeochromocytoma cells; format: cell-based; conditions: LPS 200 ng/ml; lactic acid bacteria 1×10^4 CFU/ml; 24 hr
Description: as §2, with “PC12” for “SH-SY5Y”, “1×10^6” for “2×10^6”, “hr.” for “h.”, “NPY” for “BDNF”

Clostridium difficile = Clostridium difficile proliferation in gut microbiota (PCR); format: cell-based; conditions: human feces culture; lactic acid bacteria 1×10^6 CFU/mL; anaerobic 24 hr
Description: Fresh human feces were suspended in anaerobic medium (GAM, Nissui Pharmaceutical Co., Ltd., Japan) and allowed to stand for 10 min. The supernatant was diluted with 10,000-fold anaerobic medium, 0.05 mL of the dilution was transplanted into 5 mL of freshly made anaerobic medium, and lactic acid bacteria (1×10^6 CFU/mL) were implanted and incubated anaerobically for 24 hr. This culture medium was divided into two, one was centrifuged (5000 rpm, 20 minutes), the precipitated DNA was isolated using the QIAamp DNA stool mini kit (Qiagen, Germany), and Clostridium difficile (primer: forward, 5′-[…]-3′ (SEQ ID NO: 4); reverse, 5′-[…]-3′ (SEQ ID NO: 5) was quantified by PCR. The reaction product was first treated at 95° C. for 30 seconds, followed by 42 cycles of 5 seconds at 95° C. and 30 seconds at 72° C. for analysis. In addition, one culture medium was sonicated, centrifuged, and filter-sterilized, and the amount of LPS in the supernatant was measured using an ELISA kit.

gut microbiota = experiment: LPS production in gut microbiota (ELISA); format: cell-based; conditions: human feces culture; lactic acid bacteria 1×10^6 CFU/mL; anaerobic 24 hr
Description: Fresh human feces were suspended in anaerobic medium (GAM, Nissui Pharmaceutical Co., Ltd., Japan) and allowed to stand for 10 min. The supernatant was diluted with 10,000-fold anaerobic medium, 0.05 mL of the dilution was transplanted into 5 mL of freshly made anaerobic medium, and lactic acid bacteria (1×10^6 CFU/mL) were implanted and incubated anaerobically for 24 hr.

Substance | Antioxidant activity [1] | Macrophage Inhibition of TNF-α expression (TNF-α) | Macrophage Induction of IL-10 expression (IL-10) | SHSY5Y cell Induction of BDNF expression (BDNF) | PC12 cell Induction of NPY expression (Neuropeptide Y (NPY)) | Gut microbiota Inhibition of difficile bacteria proliferation (Clostridium difficile) | Gut microbiota Inhibition of LPS production (gut microbiota)
Bifidobacterium adolescentis NK220 | + (weakly (+; >20-60%)) | + (weakly (+; >20-60%)) | + (weakly (+; >20-60%)) | + (weakly (+; >20-60%)) | − (not or less than 20% (−; <20%)) | + (weakly (+; >20-60%)) | − (not or less than 20% (−; <20%))
Bifidobacterium adolescentis NK221 | + (weakly (+; >20-60%)) | − (not or less than 20% (−; <20%)) | − (not or less than 20% (−; <20%)) | − (not or less than 20% (−; <20%)) | + (weakly (+; >20-60%)) | + (weakly (+; >20-60%)) | + (weakly (+; >20-60%))
Bifidobacterium adolescentis NK222 | + (weakly (+; >20-60%)) | + (weakly (+; >20-60%)) | + (weakly (+; >20-60%)) | − (not or less than 20% (−; <20%)) | + (weakly (+; >20-60%)) | + (weakly (+; >20-60%)) | + (weakly (+; >20-60%))
Bifidobacterium bifidum NK223 | + (weakly (+; >20-60%)) | + (weakly (+; >20-60%)) | + (weakly (+; >20-60%)) | + (weakly (+; >20-60%)) | − (not or less than 20% (−; <20%)) | − (not or less than 20% (−; <20%)) | − (not or less than 20% (−; <20%))
Bifidobacterium bifidum NK224 | + (weakly (+; >20-60%)) | − (not or less than 20% (−; <20%)) | − (not or less than 20% (−; <20%)) | − (not or less than 20% (−; <20%)) | + (weakly (+; >20-60%)) | + (weakly (+; >20-60%)) | + (weakly (+; >20-60%))
Bifidobacterium catenulatum NK225 | + (weakly (+; >20-60%)) | + (weakly (+; >20-60%)) | + (weakly (+; >20-60%)) | − (not or less than 20% (−; <20%)) | − (not or less than 20% (−; <20%)) | + (weakly (+; >20-60%)) | − (not or less than 20% (−; <20%))
Bifidobacterium catenulatum NK226 | + (weakly (+; >20-60%)) | − (not or less than 20% (−; <20%)) | − (not or less than 20% (−; <20%)) | + (weakly (+; >20-60%)) | − (not or less than 20% (−; <20%)) | + (weakly (+; >20-60%)) | − (not or less than 20% (−; <20%))
Bifidobacterium longum NK217 | + (weakly (+; >20-60%)) | + (weakly (+; >20-60%)) |  | − (not or less than 20% (−; <20%)) | − (not or less than 20% (−; <20%)) | − (not or less than 20% (−; <20%)) | − (not or less than 20% (−; <20%))
Bifidobacterium pseudocatenulatum NK229 | + (weakly (+; >20-60%)) | + (weakly (+; >20-60%)) |  | + (weakly (+; >20-60%)) | − (not or less than 20% (−; <20%)) | − (not or less than 20% (−; <20%)) | − (not or less than 20% (−; <20%))
Lactobacillus gasseri NK188 | + (weakly (+; >20-60%)) | + (weakly (+; >20-60%)) | + (weakly (+; >20-60%)) | − (not or less than 20% (−; <20%)) | − (not or less than 20% (−; <20%)) | + (weakly (+; >20-60%)) | 
Lactobacillus paracasei NK190 | + (weakly (+; >20-60%)) | − (not or less than 20% (−; <20%)) | − (not or less than 20% (−; <20%)) | − (not or less than 20% (−; <20%)) | + (weakly (+; >20-60%)) | + (weakly (+; >20-60%)) | 
Lactobacillus paracasei NK191 | + (weakly (+; >20-60%)) | − (not or less than 20% (−; <20%)) | + (weakly (+; >20-60%)) | + (weakly (+; >20-60%)) | + (weakly (+; >20-60%)) | − (not or less than 20% (−; <20%)) | 
Lactobacillus paracasei NK192 | ++ (strongly (++; >60-90%)) | − (not or less than 20% (−; <20%)) | − (not or less than 20% (−; <20%)) | − (not or less than 20% (−; <20%)) | − (not or less than 20% (−; <20%)) | − (not or less than 20% (−; <20%)) | 
Lactobacillus sakei NK199 | + (weakly (+; >20-60%)) | + (weakly (+; >20-60%)) |  | − (not or less than 20% (−; <20%)) | − (not or less than 20% (−; <20%)) | − (not or less than 20% (−; <20%)) | − (not or less than 20% (−; <20%))
Lactococcus graminis NK206 | + (weakly (+; >20-60%)) | − (not or less than 20% (−; <20%)) | − (not or less than 20% (−; <20%)) |  | + (weakly (+; >20-60%)) |  | 
Lactococcus graminis NK207 | − (not or less than 20% (−; <20%)) |  |  | − (not or less than 20% (−; <20%)) | − (not or less than 20% (−; <20%)) | + (weakly (+; >20-60%)) | + (weakly (+; >20-60%))
